In ChEMBL document CHEMBL3137381, “MMV Box Onchocerca lienalis screening set” one finds Motility data, which are given here for 41 compounds.

Common to all, as to assay type: functional
Experiment [1] deals with Onchocerca lienalis. Nature of the experiment: MMV: Percent motility assay at a compound concentration of 1.25e-5 M. Activity score legend: 3: Active, 2: Moderately active; 1: Inactive, 0: Toxic. Particulars: at 12.5 µM.
Experiment [2] relates to Onchocerca lienalis. The experiment is described as follows: MMV: Percent motility assay at a compound concentration of 3.1e-6 M. Activity score legend: 3: Active, 2: Moderately active; 1: Inactive, 0: Toxic. Conditions: at 3.1 µM.
For experiment [3], the system named is Onchocerca lienalis. The experiment is described as follows: MMV: Percent motility assay at a compound concentration of 1.9e-7 M. Activity score legend: 3: Active, 2: Moderately active; 1: Inactive, 0: Toxic. Conditions: at 0.19 µM.
Experiment [4] deals with Onchocerca lienalis. The experiment is described as follows: MMV: Percent motility assay at a compound concentration of 7.8e-7 M. Activity score legend: 3: Active, 2: Moderately active; 1: Inactive, 0: Toxic. Conditions: at 0.78 µM.

With `O=C(Nc1ccccc1O)c1ccc(Oc2cccc(C(=O)Nc3ccccc3O)c2)cc1`, the Motility in experiment [1], in experiment [2], in experiment [3] and in experiment [4] was 100% throughout.

With `Cl.N=c1n(CCN2CCCCC2)c2ccccc2n1CC(O)c1cccc(Br)c1` (centres undefined), the Motility in experiment [1], in experiment [2], in experiment [3] and in experiment [4] was 100% in each case.

As for `COc1cccc(O)c1CN1CCC2(CCCN(Cc3ccc(F)cc3)C2)C1` (centres undefined), the Motility in experiment [1], in experiment [2], in experiment [3] and in experiment [4] was 100% in each case.

As for `O=C(NCc1ccco1)C1CCN(S(=O)(=O)c2ccc(Cl)cc2)CC1`, the Motility in experiment [1], in experiment [2], in experiment [3] and in experiment [4] was 100% each time.

`COc1ccc(C(=O)Nc2ccc3nc(N4CCCCC4)cc(C)c3c2)cc1OC`: the Motility in experiment [1], in experiment [2], in experiment [3] and in experiment [4] was 100% each time.

Regarding `FC(F)(F)c1ccc(Nc2nnnc3ccccc23)cc1`, the Motility in experiment [1], in experiment [2], in experiment [3] and in experiment [4] was 100% each time.

As for `c1ccc(-c2ccc(-c3nc4ccccc4[nH]3)cc2)cc1`, the Motility worked out at 66.6% in experiment [1], 100% in experiment [2], 100% in experiment [3] and 100% in experiment [4].

In the case of `CCC(C)NCC(O)(c1ccc(Cl)cc1)c1ccc(Cl)cc1` (centres undefined), the Motility in experiment [1], in experiment [2], in experiment [3] and in experiment [4] was 100% each time.

On to `COc1cccc(NC(=O)Cn2c(C)c(C#N)c3ccccc32)c1`, for which the Motility in experiment [1], in experiment [2], in experiment [3] and in experiment [4] was 100% in each case.

With `COCCNC(=O)c1ccc(OC2CCN(Cc3ccc(F)c(F)c3)CC2)c(Cl)c1`, the Motility is on record as 46.6% in experiment [1], 100% in experiment [2], 100% in experiment [3] and 100% in experiment [4].

Regarding `CC(C)=CCN1CCC(C(=O)Nc2ccc(-c3nc4ccccc4[nH]3)cc2)CC1`, the Motility in experiment [1], in experiment [2], in experiment [3] and in experiment [4] was 100% in each case.

With `O=C(CCc1ccco1)NC1CCN(CC2(c3ccc(Cl)cc3)CCC2)CC1`, the Motility in experiment [1], in experiment [2], in experiment [3] and in experiment [4] was 100% throughout.

For `FC(F)(F)c1cccc(Nc2nc(-c3ccccc3)nc3ncccc23)c1`, the Motility in experiment [1], in experiment [2], in experiment [3] and in experiment [4] was 100% in each case.

For `CCN1CCN(c2cc(C)c3cc(NC(=O)c4ccc(OC)c(OC)c4)ccc3n2)CC1`, the Motility in experiment [1], in experiment [2], in experiment [3] and in experiment [4] was 100% in each case.

As to `COc1ccc(CNC2CCN(c3ccc(NC(=O)c4cccc(Cl)c4)cc3)CC2)cc1OC`, the Motility in experiment [1], in experiment [2], in experiment [3] and in experiment [4] was 100% in each case.

As to `COCCN(C(=O)Cc1cccs1)C(C(=O)NCc1ccc(OC)cc1)c1ccc(C(C)C)cc1` (centres undefined), the Motility in experiment [1] is 46.6%; in experiment [2], 100%; in experiment [3], 100%; in experiment [4], 100%.

As for `FC(F)(F)c1cccc(CNC2CCN(CCc3ccccc3)CC2)c1`, the Motility in experiment [1], in experiment [2], in experiment [3] and in experiment [4] was 100% throughout.

In the case of `Oc1ccc(Cl)cc1CNc1nc2ccccc2[nH]1`, the Motility stood at 66.6% in experiment [1], 100% in experiment [2], 100% in experiment [3] and 100% in experiment [4].

In the case of `O=C(c1ccccc1F)N(Cc1ccc(Cl)cc1)c1ccccn1`, the Motility in experiment [1], in experiment [2], in experiment [3] and in experiment [4] was 100% throughout.

Regarding `COc1ccc(C(=O)Nc2ccc(Cl)cc2C(=O)Nc2ccncc2)cc1`, the Motility in experiment [1], in experiment [2], in experiment [3] and in experiment [4] was 100% in each case.

Turning to `O=C(Nc1ccc(Cl)cc1)N1CCN(c2ccc3nncn3n2)CC1`, the Motility in experiment [1], in experiment [2], in experiment [3] and in experiment [4] was 100% in each case.

With `CN(C)c1ccc(-c2nc3cc(N)ccc3[nH]2)cc1`, the Motility in experiment [1] worked out at 33.33%; in experiment [2], 66.66%; in experiment [3], 100%; in experiment [4] it was 100%.

On to `O=C(CSc1ccc2nnc(-c3cccc(F)c3)n2n1)Nc1ccc2c(c1)OCO2`, for which the Motility in experiment [1], in experiment [2], in experiment [3] and in experiment [4] was 100% in each case.

Take `Cc1c(C)n(Cc2ccc(F)cc2)c2ccc(C(=O)NCc3ccco3)cc12`: the Motility in experiment [1], in experiment [2], in experiment [3] and in experiment [4] was 100% each time.

In the case of `CCN(CC)c1ccc(NC(=O)c2cccs2)cc1`, the Motility in experiment [1], in experiment [2], in experiment [3] and in experiment [4] was 100% throughout.

As to `CCCCNCC(O)(c1ccc(Cl)cc1)c1ccc(Cl)cc1`, the Motility in experiment [1], in experiment [2], in experiment [3] and in experiment [4] was 100% throughout.

Take `Cc1ccc(Cn2c(N3CCC(C(=O)NCc4cccs4)CC3)nc3ccccc32)cc1`: the Motility in experiment [1], in experiment [2], in experiment [3] and in experiment [4] was 100% each time.

Consider `O=C(Nc1ccsc1C(=O)NC1CCCCC1)c1ccc(F)cc1`, for which the Motility in experiment [1], in experiment [2], in experiment [3] and in experiment [4] was 100% each time.

As for `O=C(Nc1cccc(C(F)(F)F)c1)c1cc(Cl)ccc1O`, the Motility in experiment [1] was 0%; in experiment [2] it was 53.33%; in experiment [3], 100%; in experiment [4], 100%.

Consider `CCOc1cccc2sc(N(Cc3cccnc3)C(=O)C3CCCCC3)nc12`, for which the Motility in experiment [1], in experiment [2], in experiment [3] and in experiment [4] was 100% each time.

Turning to `CC(C)(C)CC(C)(C)NCC(O)COc1ccc2c(c1)CCC2.Cl` (centres undefined), the Motility in experiment [1], in experiment [2], in experiment [3] and in experiment [4] was 100% in each case.

Consider `CCOc1ccc(/C=C/c2nc(=O)c3ccccc3o2)cc1`, for which the Motility in experiment [1], in experiment [2], in experiment [3] and in experiment [4] was 100% in each case.

With `O=C(Nc1ccccc1O)c1ccc(-c2ccc(Cl)cc2Cl)o1`, the Motility in experiment [1], in experiment [2], in experiment [3] and in experiment [4] was 100% in each case.

`O=C(Nc1nc(-c2ccccn2)cs1)c1ccccc1Br`: the Motility in experiment [1] is given as 0%; in experiment [2], 60%; in experiment [3], 100%; in experiment [4] it was 100%.

As to `CC(O)(c1ccc(Cl)cc1)C(CN1CCCCC1)c1ccccc1.Cl` (centres undefined), the Motility in experiment [1] is on record as 66.6%; in experiment [2], 100%; in experiment [3], 100%; in experiment [4] it was 100%.

With `CCCCc1ccc(NS(=O)(=O)c2cc3c4c(c2)CCN4C(=O)CC3)cc1`, the Motility in experiment [1], in experiment [2], in experiment [3] and in experiment [4] was 100% throughout.

On to `CCOc1ccccc1CNC(=O)C1c2ccccc2C(=O)N(CC(C)C)C1c1cccs1` (centres undefined), for which the Motility in experiment [1], in experiment [2], in experiment [3] and in experiment [4] was 100% each time.

On to `COc1ccccc1N1CCN(C(CNS(=O)(=O)c2ccc(Cl)cc2)c2cccnc2)CC1` (centres undefined), for which the Motility in experiment [1], in experiment [2], in experiment [3] and in experiment [4] was 100% throughout.

`COc1ccc(C2Sc3ccccc3N=C3C2=C(O)c2ccccc23)cc1` (centres undefined): the Motility in experiment [1], in experiment [2], in experiment [3] and in experiment [4] was 100% throughout.

As to `CCN(CC)CCCNc1nc(-c2ccc(Cl)cc2)nc2ccccc12`, the Motility in experiment [1] stood at 66.6%; in experiment [2], 100%; in experiment [3], 100%; in experiment [4] it was 100%.

In the case of `C=C(C)CCC(C)N1CCC(N2CCC(C(=O)NCCc3ccccc3)CC2)CC1` (centres undefined), the Motility in experiment [1], in experiment [2], in experiment [3] and in experiment [4] was 100% throughout.
